“Also recorded” adds a separate entry of the source.
Tests used:
Format in all cases: cell-based, human
APP [1] = experiment: APP processing (mature APP, αCTF, βCTF) by western blot
Experimental: Total protein was collected in RIPA buffer plus protease inhibitors on ice and briefly sonicated. They lysate was centrifuged at 14,000 rpm for 15 minutes. […] After washing, the blots were probed with a polyclonal HRP-tagged secondary Ab (1:5000) for 1 hour at room temperature then visualized.
A second possibility is that DIF-1 potentiates the activity of y-secretase and processing of αCTFs and βCTFs. To assess this latter possibility, we examined the effect of DIF-1 in the presence of DAPT, a potent γ-secretase inhibitor. Even numbers of CHO-7W cells were plated in 6-well dishes and allowed to grow overnight. The next day, the media was removed and replaced with control media (2 ml) or media containing DAPT, DIF-1 or DAPT and DIF-1. […] After washing, blots were probed with HRP-conjugated secondary antibodies (1:5000) for 1 hour at room temperature. […] It would appear that the mechanism of DIF-1 on APP metabolism is not likely to involve γ-secretase activity, but might impact on either BACE1 levels or activity.
To evaluate this probability, we treated CHO-CAB cells that overexpress human APP^751 and human BACE1 with 30 μM of DIF-1. More specifically, even numbers of CHO-CAB cells were plated in 6-well dishes and allowed to grow overnight. The next day, the media was removed and replaced with control media (2 ml) or media containing DAPT, DIF-1 or DAPT and DIF-1. […] After washing, blots were probed with HRP-conjugated secondary antibodies (1:5000) for 1 hour at room temperature. Each treatment is shown above the blot. […] It would appear that DIF-1 has a greater effect on APP maturation in CHO-CAB cells. Longer exposures reveal the presence of mature APP bands in DIF-1 treated cells.
Next dose-dependent effects of DIF-1 on APP processing were examined. Even numbers of CHO-CAB cells were plated in 6-well dishes and allowed to grow overnight. The next day, cells were treated overnight with either vehicle or increasing concentrations of DIF-1 (5-30 μM).

APPT668A and APPT668E = experiment: APP processing in CHO cells expressing APP T668A or T668E; conditions: 30 μM
Text: To assess whether or not the decrease in phosphorylated APP seen in DIF-1 treated cells contributed mechanistically to the reduction of maturation, secretion and metabolic processing of APP^751, mutants were generated using APP^751 in which T724 (APP^751 numbering) was mutated to either an alanine residue such that phosphorylation could not occur, or a glutamic acid residue that should mimic constitutive phosphorylation of APP. APP^751, Isoform B, NM_201413 was used as a template. We essentially used Stratagene's QuickChange® Site-Directed Mutagenesis Kit (Catalog #200518) to create the desired mutations as recommended by the manufacturer with the following exceptions. The APP^751 codon for threonine 724 (ACC) was mutated to code for Alanine (A) (GCC) and Glutamic Acid (E) (GAA), respectively. The following mutagenesis primers were used to create each mutation. […]
Cells were diluted and plated in multiple 10 cm tissue culture dishes and allowed to recover overnight in Dulbecco's modified Eagle's medium containing 4.5 mg/ml D-glucose supplemented with 10% fetal bovine serum and 100 units/ml penicillin, 100 μg/ml streptomycin, 2 mM L-glutamine (Sigma) at 37° C. in a 5% CO2 atmosphere. […] Protein extracts were assessed for APPT724A and APPT724E expression levels compared to naïve cells by western blot using polyclonal anti-APP C-terminal antibodies (C66). […]

APP [2] = experiment: APP processing (mature APP, αCTF, βCTF) by western blot; conditions: CHO-CAB

Compound: CCCCCC(=O)c1c(O)c(Cl)c(OC)c(Cl)c1O [DIF-1, 1-[3,5-dichloro-2,6-dihydroxy-4-methoxyphenyl]-1-hexanone]
- APP maturation and αCTF and βCTF levels (APP [1]; CHO-7W, 30 μM DIF-1 alone): significant decrease in APP maturation and both αCTF and βCTF production; also recorded: significant decreases in both αCTF and βCTF levels
- αCTF and βCTF levels, simultaneous treatment with DAPT (APP [1]; CHO-7W, 30 μM DIF-1 plus 250 nM DAPT): increased, but not to the level seen with DAPT alone
- effect on APP metabolism with BACE1 overexpression (APP [1]; CHO-CAB, 30 μM): did not repress the effects of DIF-1 on APP metabolism
- dose dependence of αCTF and βCTF reduction (APP [1]; CHO-CAB, 5-30 μM): reduced both αCTFs and βCTFs in a dose-dependent manner
- concentration required to have an effect on mature APP levels (APP [1]; CHO-CAB, 5-30 μM overnight): ~20 µM
- effect of DIF-1 on APP maturation and CTFs in T668A or T668E mutant APP (APPT668A and APPT668E): completely abolished the effect of DIF-1 on APP maturation and the reduction of both αCTF and βCTF levels
- effect on lactacystin-induced CTF accumulation (APP [2]; 30 μM DIF-1 with 10 μM lactacystin): greatly reduced the effect of lactacystin
- effect on ALLN-induced CTF accumulation (APP [2]; DIF-1 with 10 μM ALLN): reduced the effect of ALLN on APP processing
